From ChEMBL document CHEMBL3352536, “Antiparasitic compounds may potentially treat malaria and other parasitic diseases” (ACS Med Chem Lett, 2014)
pEC50: −log10 of the molar value.

How the values were obtained:
Plasmodium yoelii = test: Antiplasmodial activity against Plasmodium yoelii infected in liver cells assessed as inhibition of proliferation; assay type: functional, organism-based
Plasmodium falciparum = test: Antiplasmodial activity against Plasmodium falciparum infected in human blood cells assessed as inhibition of proliferation; assay type: functional, organism-based

SMILES	pEC50 (Plasmodium yoelii)	pEC50 (Plasmodium falciparum)
CN(C(=O)c1cn2c(-c3ccc(C(N)=O)cc3)cnc2cn1)c1ccc(F)cc1	7.25	7.13
CN(Cc1cn2c(-c3ccc(C(N)=O)cc3)cnc2cn1)c1ccc(F)cc1	8.15	7.52
CN(Cc1cn2c(-c3ccc(C(N)=O)cc3)cnc2cn1)c1ccc(Cl)cc1	7.96	8.05
Cc1ccc(N(C)C(=O)c2cn3c(-c4ccc(C(F)(F)F)cc4)cnc3cn2)nc1	5.96	6.70
